Results published in PMC5789847, “Bismuth antimicrobial drugs serve as broad-spectrum metallo-β-lactamase inhibitors” (Nature Communications, 2018).
Several values for one entry are separate records, joined by “and”; a condition that tells them apart may be missing. Identical values can stand only once.

Assays:
[1] = system: IMP-BL21 (IMP-4^+); assay: microbe, parasite or virus in culture; assay type: cell-based, E. coli; conditions: IMP-BL21
[2] = system: NDM-HK (NDM-1^+); assay: microbe, parasite or virus in culture; assay type: cell-based, E. coli
[3] = system: VIM-BL21 (VIM-2^+); assay: microbe, parasite or virus in culture; assay type: cell-based, E. coli; conditions: VIM-BL21
[4] = target: VIM-2 (Escherichia coli, UniProt Q5U7L7); assay type: biochemical; conditions: MER substrate
Description: (§1) Freshly prepared 50 nM of Zn2-NDM-1, Zn2-VIM-2, or Zn2-IMP-4 in 50 mM HEPES/Na pH 7.0, 100 mM NaCl were first incubated with various concentrations of CBS for 1 h at 25 °C, then mixed with equal volume of 0.2 mM MER. The assay was performed in a 1 cm quartz cuvette using the kinetic mode on a Varian Cary50 UV-visible spectrophotometer at 25 °C. The decrease in absorbance at 300 nm due to ring-opening of MER was monitored every second for a duration of 10 min until the reaction was completed. The initial rates were extracted and calculated from each reaction curves for fitting IC50 curves.

[5] = target: IMP-4; assay: IC50 enzyme inhibition assay; assay type: biochemical; conditions: MER substrate
Description: as §1

[6] = target: NDM-1-C208A (Klebsiella pneumoniae, UniProt C7C422, C208A); assay: Cellular thermal shift assay, mutant strain C208A-Rosetta; assay type: cell-based, E. coli; conditions: control 48.24 °C
NDM-1-C208A, sequence (C7C422 29-270 C208A): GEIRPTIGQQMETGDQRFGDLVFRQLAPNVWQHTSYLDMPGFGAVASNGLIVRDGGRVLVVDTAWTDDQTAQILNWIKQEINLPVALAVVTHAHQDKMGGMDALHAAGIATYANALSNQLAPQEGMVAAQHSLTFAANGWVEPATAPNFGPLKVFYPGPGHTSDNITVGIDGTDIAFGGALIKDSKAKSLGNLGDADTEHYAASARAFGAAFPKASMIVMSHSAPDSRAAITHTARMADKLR

[7] = system: NDM-HK; assay: In vitro cell infection assay (MDCK cells); assay type: cell-based, E. coli
Description: MDCK cell was cultured in minimum essential Media (MEM) supplemented with fetal bovine serum (FBS, 10%) and grown at 37 °C in 5% CO2-humidified atmosphere for 3 days. About 1.0 × 10^5 MDCK cells were seeded per well in 24-well plates and incubated as described above for 48 h to ensure confluency. Logarithmic cultures of NDM-HK were washed with PBS for three times and re-suspended in MEM/10% FBS resulting in the initial bacterial density of about 2.0 × 10^7 CFU mL^−1. Then, 500 μL of bacterial suspension were added to each well and substituted for the previous MDCK culture medium. The plates were centrifuged at 800 × g for 10 min and then incubated for another 6 h, executing the bacterial infection at multiplicity of infection (MOI) of 200. We then used two infection models for examination, viz, the cell-associated bacterial infection and cell-invaded bacterial infection. The cell-associated bacteria are herein defined as bacteria that attach to, penetrate, or transcytose in MDCK cells, while the cell-invaded bacteria are defined as bacteria that penetrate or transcytose MDCK cells. For the cell-invaded infection, the infected cells were incubated in culture medium supplemented with ciprofloxacin (100 µg mL^−1) for 1 h to remove extracellular bacteria. Then, the treated cells were washed vigorously with PBS for six times and replenished with culture medium. For the cell-associated infection, the infected cells were only washed vigorously with PBS for six times to remove unbound bacteria. The infected MDCK cells were then exposed to either MER or CBS, or their combination for overnight under identical cell culture condition. Cells in the absence of drugs served as a control. The bacterial loads were examined by lysing MDCK cells with 1% Triton X-100 in PBS and serially diluting the resulting lysates to enumerate bacterial colonies by agar plating. The assay was performed in triplicate, repeated three times, and results were expressed as average ± SD.

[8] = system: NDM-HK; assay: Murine peritonitis infection, mucin-assisted model; assay type: in vivo, BALB/c mice; conditions: 2% mucin
Excerpt: All experiments were approved by, and performed in accordance with the guidelines approved by Committee on the Use of Live Animals in Teaching and Research (CULATR), the University of Hong Kong. A total of 6–8-week-old, female BALB/c mice (18–22 g) were purchased from Charles River Laboratories, Inc. and were used in all mouse studies. The animals were randomized to cages for each experiment.
In mucin-assisted model, for infection with NDM-1-positive bacteria, an overnight culture of NDM-HK was performed 1:250 dilution in 100 mL LB broth and re-grew to about OD600 0.3 in a 500-mL flask after 2.5 h shaking at 37 °C, 250 rpm. Bacterial pellets were collected and washed by PBS buffer three times for further use. Mice were infected intraperitoneally (i.p.) with a dose of 1 × 10^5 CFU of bacteria in PBS supplemented with 2% mucin. […] Twice-daily treatment via i.p. injection was continued throughout the whole experimental course. For the infection with NDM-1-negative bacteria, all the operations of infection were similar to those used for NDM-HK, except that NDM-HK PCV was used as infection-causing bacteria. […] Twice-daily treatment via i.p. injection was continued throughout the whole experimental course. Body weights and mice survival were monitored till endpoint of the experiment.

[9] = MER + compound, 256 µg mL^-1 set as MIC of Bi(III)

colloidal bismuth subcitrate [CBS]
MBC of Bi(III) compound alone [1]: > 256 µg/mL | MBC of MER in combination with compound at 32 µg mL^-1 [1]: 8 µg/mL | MIC of Bi(III) compound alone [1]: > 256 µg/mL | MIC of MER in combination with compound at 32 µg mL^-1 [1]: 4 µg/mL | FICI [1, 9]: 0.187 | growth inhibition by CBS itself ([2]; NDM-1-positive NDM-HK, even at 256 µg mL^-1): no or minor growth inhibition | MBC of Bi(III) compound/inhibitor alone ([2]; NDM-HK): > 256 µg/mL | MBC of MER in combination with compound at 32 µg mL^-1 ([2]; NDM-HK): 4 µg/mL | MIC of Bi(III) compound/inhibitor alone ([2]; NDM-HK): > 256 µg/mL | MIC of MER in combination with CBS at 16 µg mL-1 ([2]; NDM-HK): 4 µg/mL | MIC of MER in combination with CBS at 256 µg mL-1 ([2]; NDM-HK): 2 µg/mL | MIC of MER in combination with compound at 32 µg mL^-1 ([2]; NDM-HK): 2 µg/mL | FICI ([2]; NDM-HK, MER + compound, 256 µg mL^-1 set as MIC of Bi(III), 128 for Bi(NAC)3): 0.250 | MBC of Bi(III) compound alone [3]: > 256 µg/mL | MBC of MER in combination with compound at 32 µg mL^-1 [3]: 1 µg/mL | MIC of Bi(III) compound alone [3]: > 256 µg/mL | MIC of MER in combination with compound at 32 µg mL^-1 [3]: 0.5 µg/mL | FICI [3, 9]: 0.047 | IC50 ([4]; VIM-2 50 nM, 1 h preincubation): 3.54 µM and 3.55 µM | maximal inhibition of MBL activity ([4]; VIM-2, dose-dependent): approximately 90% | IC50 ([5]; IMP-4 50 nM, 1 h preincubation): 0.7 ± 0.08 µM | maximal inhibition of MBL activity ([5]; IMP-4, dose-dependent): approximately 90% | melting temperature, treated group [6]: 49.72 °C | decrease in the bacterial load, bacteria-invaded model ([7]; MER and CBS combination): more than 100 fold | viable bacterial loads, cell-associated infection ([7]; MOI 200, MER and CBS (32 μg mL^−1) in combination, overnight): ~10^4 CFU | protection from death, CBS monotherapy ([8]; i.p. twice daily from 4 h post infection, CBS 20 mg kg^−1 (Fig. 4f), within 48 h): failed to protect any of the mice from death | mice survival rate, combination therapy of MER and CBS ([8]; i.p. twice daily, MER + CBS 20 mg kg^−1 (Fig. 4f)): 50%
